Laboratory results: patent publication US9890192B2, “Targeted nitroxide agents” (University of Pittsburgh—of the Commonwealth System of …, priority 2008, dated 2018)

Legend:
[1] = system: phospholipids in intestinal mucosa; assay: Peroxidation of phospholipids in gut mucosa after hemorrhagic shock; type: in vivo, rat; conditions: 10 μM intraluminal; 2 h HS
Source text: Assay for peroxidation of phospholipods. Gut mucosal samples were homogenized. Lipids were extracted from homogenates using the Folch procedure, see M. Lees and G. H. Sloan-Stanley, A simple method for isolation and purification of total lipids from animal tissue, J. BIOL. CHEM. 226:497-509 (1957), and resolved by 2D HPTLC (High Performance Thin Layer Chromatography) as previously described, see Kagan, V. E. et al., A role for oxidative stress in apoptosis: Oxidation and externalization of phosphatidylserine is required for macrophage clearance of cell undergoing Fas-mediated apoptosis, J Immunol. 169:487-489 (2002). Spots of phospholipids were scraped from HPTLC plates and phospholipids were extracted from silica. Lipid phosphorus was determined by a micro-method, see Bottcher, C. J. F. et al, A rapid and sensitive sub-micro phosphons determination. Anal Chim Acta. 24: 203-204 (1961).
Oxidized phospholipids were hydrolyzed by pancreatic phospholipase A2 (2 U/μl) in 25 mM phosphate buffer containing 1 mM CaCl2. 0.5 mM EDTA and 0.5 mM sodium dodecyl sulfate (SDS) (pH 8.0, at room temperature for 30 min). Fatty acid hydroperoxides formed were determined by fluorescence HPLC of resorufin stoichiometrically formed during their microperoxidase 11-catalized reduction in presence of Amplex Red (for 40 min at 4° C.) (8). Fluorescence HPLC (Eclipse XDB-C18 column, 5 μm, 150×4.6 mm, mobile phase was composed of 25 mM disodium phosphate buffer (pH 7.0)/methanol (60:40 v/v); excitation wavelength 560 nm, emission wavelength 590 nm) was performed on a Shimadzu LC-100AT HPLC system equipped with fluorescence detector (RF-10Axl) and autosampler (SIL-10AD).
In the subsequent series of in vivo studies, the affect of intraluminal XJB-5-131 on hemorrhage-induced peroxidation of phospholipids in intestinal mucosa was examined. […] In a preferred embodiment, 0.3 mL of test solution filled the lumen of each ileal compartment.
After two hours of HS, samples of ileal mucosa from the gut sacs filled with the vehicle and XJB-5-131 were obtained and compared with ileal mucosa of normal MECs. […]

[2] = system: rat ileal mucosal permeability; assay: Intestinal mucosal permeability assay (FD4) after hemorrhagic shock; type: in vivo
Protocol: Intestinal mucosal permeability assay. Animals were allowed access to water but not food for 24 h prior to the experiment in order to decrease the volume of intestinal contents. The rats were instrumented as described above. A midline laparotomy was performed and the small intestine was exteriorized from the duodenojejunal junction to the ileocecal valve. A small incision was made on the antimesenteric aspect of the proximal small intestine and saline solution (1.5 ml) was injected. The bowel was ligated proximally and distally to the incision with 4-0 silk (Look, Reading, Pa.).
The small intestine was compressed gently in aboral direction along its length to displace intestinal contents into the colon. Starting 5 cm from the ileocecal valve, the ileum was partitioned into six contiguous water-tight segments. Each segment was 3 cm long and was bounded proximally and distally by constricting circumferential 4-0 silk sutures. Care was taken to ensure that the vascular supply to intestine was not compromised, and each segment was well-perfused.
Two randomly selected segments in each rat were injected with 0.3 ml of vehicle and served as “no treatment” controls. In order to fill the segments, a small incision was made and the solution was injected using a Teflon catheter (Abbocath 16Ga, Abbot Laboratories).
The remaining four other segments were injected with solutions containing either 4-hydroxy-2,2,6,6-tetramethylpiperidine-N-oxyl (TEMPOL) or one of the Gramicidin S-based compounds. Four different final concentrations of TEMPOL in normal saline were evaluated: 0.1, 1, 5 and 20 mM. The hemigranmicidin-based compounds were dissolved in a mixture of dimethylsulfoxide (DMSO) and normal saline (1:99 v/v) and injected at final concentrations of 0.1, 1, 10 or 100 μM. […]
Fluorescence of FD4 in the solution inside the beaker and within each gut sac was measured using a fluorescence spectrophotometer (LS-50, Perkin-Elmer, Palo Alto, Calif.) at an excitation wavelength of 492 nm and an emission wavelength of 515 nm. […]

## CC(C)C[C@@H](/C=C/[C@H](Cc1ccccc1)C(=O)N1CCC[C@H]1C(=O)N[C@H](C(=O)N[C@@H](CCCNC(=O)OCc1ccccc1)C(=O)NC1CC(C)(C)N([O])C(C)(C)C1)C(C)C)NC(=O)OC(C)(C)C [XJB-5-131]
[1]
  peroxidation of phosphatidylcholine (PC): no effect
  peroxidation of phosphatidylethanolamine (PE): only had a small effect
  peroxidation of phosphatidylserine (PS): no effect
[2]; from lowest effective concentrations
  potency relative to TEMPOL: ~1000 fold
[2]; intraluminal
  hemorrhagic shock-induced mucosal hyperpermeability, of the control value: approximately 60%
  lowest effective concentration: 1 µM
